One assay concerns the target full-length human ATR protein (ATR/ATRIP) (Homo sapiens (Human), UniProt Q13535). The experiment in a line: Binding Assay ATR (TR-FRET, tracer A displacement). The following applies: displacement of fluorescent tracer A from GST-ATR/ATRIP. From the text: To determine of binding activity of the test compounds, full-length human ATR protein was expressed and purified together with ATRIP as described above. Furthermore, a fluorescently labelled compound (tracer A as described above) was used as a tracer molecule. Detection of the binding event of the tracer was achieved by time-resolved fluorescence energy transfer (TR-FRET). We used an anti-GST-Terbium antibody (CisBio) that binds to the GST-tag at the N-terminus of ATR-kinase. Excitation of Terbium with 337 nm light results in emission of fluorescent light with 545 nm. In case a tetrameric complex has formed (antiGST-Tb+GST-ATR+Strp2-ATRIP+tracer), part of the energy will be transferred from the Terbium to the fluorophore that itself emits light of 570 nm. Displacement of the fluorescent tracer by a test compound leads to a reduction of the TR-FRET-signal.
For the assay 50 nl of a 100-fold concentrated solution of the test compound in DMSO was pipetted into a black low volume 384 well microtiter plate (MTP, Greiner Bio-One, Frickenhausen, Germany). To prepare the ATR-working solution, ATR/ATRIP stock solution was diluted in assay buffer [50 mM HEPES (pH 7.0), 10 mM MgCl2, 1 mM DTT, 0.01% (w/v) Igepal, 0.01% (w/v) BSA] to 4.2 nM protein concentration (concentration may vary from lot to lot of protein preparation). AntiGST-Tb antibody was diluted to 4.2 nM. The ATR-working solution was incubated for 30 min at 22° C. prior to dispensing to pre-form the complex of antiGST-Tb+GST-ATR+ATRIP. Then, 3 μl of the ATR-working solution were added to the test compound and the mixture was incubated for 10 min at 22° C. to allow pre-binding of the test compounds to ATR/ATRIP. Then, 2 μl of a 100 nM solution of tracer A in assay buffer were added to the ATR-working solution. The resulting mixture was incubated for 30 min at 22° C. The measurement of the TR-FRET signal was performed in a standard HTRF-compatible MTP reader instrument (e.g. BMG Pherastar) by recording the fluorescence emissions at 545 nm and 570 nm after excitation at 337-350 nm. The ratio between emission at 570 nm divided by emission at 545 nm was calculated to give the well ratio. The experimental data (well ratios) were normalised by the following way: positive control contained ATR-working solution plus tracer A solution (=0% inhibition), the negative control contained all components except GST-ATR/ATRIP (=100% inhibition). Usually the compounds were tested on the same MTP in 11 different concentrations in the range of 20 μM to 0.1 nM (20 μM, 5.9 μM, 1.7 μM, 0.51 μM, 0.15 μM, 44 nM, 13 nM, 3.8 nM, 1.1 nM, 0.33 nM and 0.1 nM). The dilution series were prepared separately before the assay on the level of the 100 fold concentrated solutions in DMSO by serial 1:3.4 dilutions in duplicate values for each concentration. IC50 values were calculated by a 4 parameter fit using standard software (GraphPad prism or equivalent).
Chain of full-length human ATR protein (ATR/ATRIP) (Q13535 other isoform, or with tags, fused parts or gaps): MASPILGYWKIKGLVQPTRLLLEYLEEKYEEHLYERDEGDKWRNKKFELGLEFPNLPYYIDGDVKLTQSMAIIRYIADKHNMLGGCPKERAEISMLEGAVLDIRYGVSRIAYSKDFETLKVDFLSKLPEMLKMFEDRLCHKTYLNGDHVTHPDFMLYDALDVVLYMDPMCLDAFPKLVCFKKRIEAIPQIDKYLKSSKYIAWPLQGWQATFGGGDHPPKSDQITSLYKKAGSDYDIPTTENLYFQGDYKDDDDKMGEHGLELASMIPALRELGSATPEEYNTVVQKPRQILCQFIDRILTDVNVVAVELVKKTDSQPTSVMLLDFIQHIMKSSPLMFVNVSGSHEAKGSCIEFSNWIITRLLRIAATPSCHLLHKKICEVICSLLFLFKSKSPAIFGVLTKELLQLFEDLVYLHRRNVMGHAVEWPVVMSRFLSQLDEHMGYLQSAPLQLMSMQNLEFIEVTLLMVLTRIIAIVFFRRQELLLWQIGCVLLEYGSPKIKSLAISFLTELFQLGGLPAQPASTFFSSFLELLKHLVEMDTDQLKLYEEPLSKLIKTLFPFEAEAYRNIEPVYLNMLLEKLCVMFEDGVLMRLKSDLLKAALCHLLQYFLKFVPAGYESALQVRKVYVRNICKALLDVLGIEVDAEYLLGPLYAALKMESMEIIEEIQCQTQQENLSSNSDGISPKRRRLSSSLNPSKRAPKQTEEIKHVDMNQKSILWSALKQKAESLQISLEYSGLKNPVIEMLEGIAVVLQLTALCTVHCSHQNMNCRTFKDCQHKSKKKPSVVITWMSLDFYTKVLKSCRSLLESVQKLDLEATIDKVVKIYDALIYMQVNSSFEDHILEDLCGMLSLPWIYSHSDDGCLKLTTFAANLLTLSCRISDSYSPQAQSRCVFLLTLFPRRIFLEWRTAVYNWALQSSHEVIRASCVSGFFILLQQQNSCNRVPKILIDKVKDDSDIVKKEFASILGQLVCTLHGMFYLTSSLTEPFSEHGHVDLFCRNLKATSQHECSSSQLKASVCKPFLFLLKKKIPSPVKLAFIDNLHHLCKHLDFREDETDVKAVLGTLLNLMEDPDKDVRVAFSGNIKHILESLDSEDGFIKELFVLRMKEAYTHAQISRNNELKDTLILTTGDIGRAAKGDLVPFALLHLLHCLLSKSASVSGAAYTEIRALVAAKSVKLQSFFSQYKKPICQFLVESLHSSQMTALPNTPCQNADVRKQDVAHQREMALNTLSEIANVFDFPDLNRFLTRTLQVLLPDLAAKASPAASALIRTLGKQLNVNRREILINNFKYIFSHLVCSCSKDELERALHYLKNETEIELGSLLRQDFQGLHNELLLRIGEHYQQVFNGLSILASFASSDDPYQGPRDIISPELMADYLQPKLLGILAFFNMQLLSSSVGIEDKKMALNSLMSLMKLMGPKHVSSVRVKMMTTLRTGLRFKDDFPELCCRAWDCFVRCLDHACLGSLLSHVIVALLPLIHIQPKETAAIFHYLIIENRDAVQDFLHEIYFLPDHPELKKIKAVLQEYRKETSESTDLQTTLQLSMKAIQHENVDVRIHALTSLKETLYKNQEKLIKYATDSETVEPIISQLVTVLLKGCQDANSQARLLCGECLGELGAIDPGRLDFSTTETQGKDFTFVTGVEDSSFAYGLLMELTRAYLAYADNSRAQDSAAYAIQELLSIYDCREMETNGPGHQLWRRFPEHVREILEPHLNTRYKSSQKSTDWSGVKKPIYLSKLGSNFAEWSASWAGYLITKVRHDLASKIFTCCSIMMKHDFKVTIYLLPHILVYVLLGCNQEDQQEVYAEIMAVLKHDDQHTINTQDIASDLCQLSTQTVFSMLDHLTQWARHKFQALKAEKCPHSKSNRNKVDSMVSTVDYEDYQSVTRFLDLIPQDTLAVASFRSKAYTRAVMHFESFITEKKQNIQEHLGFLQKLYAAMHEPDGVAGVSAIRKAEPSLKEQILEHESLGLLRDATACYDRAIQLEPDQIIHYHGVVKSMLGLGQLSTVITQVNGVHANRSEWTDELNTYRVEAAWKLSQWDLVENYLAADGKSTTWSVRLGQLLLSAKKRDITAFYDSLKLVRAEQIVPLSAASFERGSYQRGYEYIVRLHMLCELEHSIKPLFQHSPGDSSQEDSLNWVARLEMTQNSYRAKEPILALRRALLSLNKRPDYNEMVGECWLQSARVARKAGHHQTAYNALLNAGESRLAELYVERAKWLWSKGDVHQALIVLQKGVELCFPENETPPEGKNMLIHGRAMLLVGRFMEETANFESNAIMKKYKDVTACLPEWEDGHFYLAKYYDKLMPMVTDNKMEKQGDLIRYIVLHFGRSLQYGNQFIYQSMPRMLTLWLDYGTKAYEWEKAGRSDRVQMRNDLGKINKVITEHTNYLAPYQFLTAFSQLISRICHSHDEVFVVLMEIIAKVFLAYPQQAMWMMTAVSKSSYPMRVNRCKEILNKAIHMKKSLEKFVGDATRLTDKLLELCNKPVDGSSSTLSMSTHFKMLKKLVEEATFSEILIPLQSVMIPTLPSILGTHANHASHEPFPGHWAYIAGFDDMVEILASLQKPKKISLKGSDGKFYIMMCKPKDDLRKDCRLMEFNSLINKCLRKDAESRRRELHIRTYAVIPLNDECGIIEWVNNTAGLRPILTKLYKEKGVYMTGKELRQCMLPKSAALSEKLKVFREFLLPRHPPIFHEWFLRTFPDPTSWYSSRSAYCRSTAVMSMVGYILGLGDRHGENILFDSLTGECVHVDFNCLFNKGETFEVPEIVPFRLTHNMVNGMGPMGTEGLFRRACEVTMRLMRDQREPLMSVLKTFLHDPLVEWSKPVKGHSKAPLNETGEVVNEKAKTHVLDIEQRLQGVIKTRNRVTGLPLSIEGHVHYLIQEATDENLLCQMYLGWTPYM
Chain of full-length human ATR protein (ATR/ATRIP) (Q8WXE1 other isoform, or with tags, fused parts or gaps partner): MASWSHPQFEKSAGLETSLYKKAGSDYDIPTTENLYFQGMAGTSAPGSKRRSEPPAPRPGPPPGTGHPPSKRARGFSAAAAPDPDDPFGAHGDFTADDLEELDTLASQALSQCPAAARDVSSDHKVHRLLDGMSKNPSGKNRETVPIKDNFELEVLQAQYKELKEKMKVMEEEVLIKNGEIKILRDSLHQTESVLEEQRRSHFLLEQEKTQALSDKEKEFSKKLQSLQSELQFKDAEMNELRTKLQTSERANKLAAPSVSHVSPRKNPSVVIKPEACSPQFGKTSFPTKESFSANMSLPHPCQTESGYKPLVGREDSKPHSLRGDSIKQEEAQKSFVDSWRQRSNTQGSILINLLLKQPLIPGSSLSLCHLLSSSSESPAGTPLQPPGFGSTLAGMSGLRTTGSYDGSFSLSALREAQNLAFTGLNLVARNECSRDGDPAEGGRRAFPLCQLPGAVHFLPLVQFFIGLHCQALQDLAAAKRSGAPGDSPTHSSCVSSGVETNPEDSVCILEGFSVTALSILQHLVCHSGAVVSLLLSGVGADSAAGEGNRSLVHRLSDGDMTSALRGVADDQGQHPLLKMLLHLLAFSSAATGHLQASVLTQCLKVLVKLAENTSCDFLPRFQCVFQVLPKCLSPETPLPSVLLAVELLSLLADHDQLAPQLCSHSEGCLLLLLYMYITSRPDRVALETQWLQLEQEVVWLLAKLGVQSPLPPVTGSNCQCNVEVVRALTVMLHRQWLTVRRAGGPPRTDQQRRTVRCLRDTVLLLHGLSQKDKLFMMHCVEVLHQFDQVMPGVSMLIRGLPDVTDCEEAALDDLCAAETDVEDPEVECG
On to `Cc1cnc(-c2ccn[nH]2)c2nc(N3CCOC[C@H]3C)cc(OC(C)C)c12` [Example 1, 5-methyl-2-[(3R)-3-methylmorpholin-4-yl]-4-(propan-2-yloxy)-8-(1H-pyrazol-5-yl)-1,7-naphthyridine], for which the IC50 was found to be 25.9 nM.
Consider `Cc1cnc(-c2ccn[nH]2)c2nc(N3CCOC[C@H]3C)cc(-c3ccnn3C)c12` [Example 2, 5-methyl-2-[(3R)-3-methylmorpholin-4-yl]-4-(1-methyl-1H-pyrazol-5-yl)-8-(1H-pyrazol-5-yl)-1,7-naphthyridine], for which the IC50 turned out to be 6.02 nM.
`Cc1cnccc1-c1cc(N2CCOC[C@H]2C)nc2c(-c3ccn[nH]3)ncc(C)c12` [Example 46, 5-methyl-2-[(3R)-3-methylmorpholin-4-yl]-4-(3-methylpyridin-4-yl)-8-(1H-pyrazol-5-yl)-1,7-naphthyridine] registered an IC50 of 7.78 nM.
Compound `Cc1cnc(-c2ccn[nH]2)c2nc(N3CCOC[C@H]3C)cc(-c3ccc(CO)s3)c12` [Example 47, (5-{5-methyl-2-[(3R)-3-methylmorpholin-4-yl]-8-(1H-pyrazol-5-yl)-1,7-naphthyridin-4-yl}thiophen-2-yl)methanol] registered an IC50 of 4.09 nM.
Same read-out and setting: with `Cc1cnc(-c2ccn[nH]2)c2nc(N3CCOC[C@H]3C)cc(-c3ccc(C#N)c(F)c3)c12` [Example 48, 2-fluoro-4-{5-methyl-2-[(3R)-3-methylmorpholin-4-yl]-8-(1H-pyrazol-5-yl)-1,7-naphthyridin-4-yl}benzonitrile] the figure was 23.2 nM; with `Cc1cnc(-c2ccn[nH]2)c2nc(N3CCOC[C@H]3C)cc(-c3ccc(F)nc3)c12` [Example 49, 4-(6-fluoropyridin-3-yl)-5-methyl-2-[(3R)-3-methylmorpholin-4-yl]-8-(1H-pyrazol-5-yl)-1,7-naphthyridine], 28.6 nM; with `COc1ncccc1-c1cc(N2CCOC[C@H]2C)nc2c(-c3ccn[nH]3)ncc(C)c12` [Example 50, 4-(2-methoxypyridin-3-yl)-5-methyl-2-[(3R)-3-methylmorpholin-4-yl]-8-(1H-pyrazol-5-yl)-1,7-naphthyridine], 72.2 nM.
The same measure, in the same setting: with `Cc1cnc(-c2ccn[nH]2)c2nc(N3CCOC[C@H]3C)cc(-c3ccc(C(N)=O)cc3)c12` [Example 52, 4-{5-methyl-2-[(3R)-3-methylmorpholin-4-yl]-8-(1H-pyrazol-5-yl)-1,7-naphthyridin-4-yl}benzamide] the figure was 30.2 nM; with `Cc1cnc(-c2ccn[nH]2)c2nc(N3CCOC[C@H]3C)cc(-c3ccc(C(=O)N4CCCC4)cc3)c12` [Example 53, (4-{5-methyl-2-[(3R)-3-methylmorpholin-4-yl]-8-(1H-pyrazol-5-yl)-1,7-naphthyridin-4-yl}phenyl)(pyrrolidin-1-yl)methanone], 27.3 nM.
As for `Cc1cnc(-c2ccn[nH]2)c2nc(N3CCOC[C@H]3C)cc(-c3ccc(C(=O)NCc4ccccc4)cc3)c12` [Example 54, N-benzyl-4-{5-methyl-2-[(3R)-3-methylmorpholin-4-yl]-8-(1H-pyrazol-5-yl)-1,7-naphthyridin-4-yl}benzamide], the IC50 worked out at 34.6 nM.
The same measure, in the same setting: with `Cc1cnc(-c2ccn[nH]2)c2nc(N3CCOC[C@H]3C)cc(-c3cccc(C(=O)N(C)C)c3)c12` [Example 55, N,N-dimethyl-3-{5-methyl-2-[(3R)-3-methylmorpholin-4-yl]-8-(1H-pyrazol-5-yl)-1,7-naphthyridin-4-yl}benzamide] the figure was 40.6 nM; with `COCc1cccc(-c2cc(N3CCOC[C@H]3C)nc3c(-c4ccn[nH]4)ncc(C)c23)c1` [Example 56, 4-[3-(methoxymethyl)phenyl]-5-methyl-2-[(3R)-3-methylmorpholin-4-yl]-8-(1H-pyrazol-5-yl)-1,7-naphthyridine], 62.4 nM.
Still for that read-out and setting: with `Cc1cnc(-c2ccn[nH]2)c2nc(N3CCOC[C@H]3C)cc(-c3ccc4c(ccn4C)c3)c12` [Example 57, 5-methyl-4-(1-methyl-1H-indol-5-yl)-2-[(3R)-3-methylmorpholin-4-yl]-8-(1H-pyrazol-5-yl)-1,7-naphthyridine] the figure was 50 nM; with `Cc1cnc(-c2ccn[nH]2)c2nc(N3CCOC[C@H]3C)cc(-c3cncc4ccccc34)c12` [Example 58, 4-(isoquinolin-4-yl)-5-methyl-2-[(3R)-3-methylmorpholin-4-yl]-8-(1H-pyrazol-5-yl)-1,7-naphthyridine], 40 nM; with `COc1cncc(-c2cc(N3CCOC[C@H]3C)nc3c(-c4ccn[nH]4)ncc(C)c23)c1` [Example 59, 4-(5-methoxypyridin-3-yl)-5-methyl-2-[(3R)-3-methylmorpholin-4-yl]-8-(1H-pyrazol-5-yl)-1,7-naphthyridine], 42.6 nM.
Take `Cc1cnc(-c2ccn[nH]2)c2nc(N3CCOC[C@H]3C)cc(-c3cccc(OC(C)C)c3)c12` [Example 60, 5-methyl-2-[(3R)-3-methylmorpholin-4-yl]-4-[3-(propan-2-yloxy)phenyl]-8-(1H-pyrazol-5-yl)-1,7-naphthyridine]: the IC50 was determined as 132 nM.
Same read-out and setting: the same measure for `Cc1ccncc1-c1cc(N2CCOC[C@H]2C)nc2c(-c3ccn[nH]3)ncc(C)c12` [Example 61, 5-methyl-2-[(3R)-3-methylmorpholin-4-yl]-4-(4-methylpyridin-3-yl)-8-(1H-pyrazol-5-yl)-1,7-naphthyridine]: 8.6 nM; for `Cc1cnc(-c2ccn[nH]2)c2nc(N3CCOC[C@H]3C)cc(-c3ccc(C(=O)NC(C)(C)C)cc3)c12` [Example 62, N-tert-butyl-4-{5-methyl-2-[(3R)-3-methylmorpholin-4-yl]-8-(1H-pyrazol-5-yl)-1,7-naphthyridin-4-yl}benzamide]: 18.2 nM.
Take `Cc1cnc(-c2ccn[nH]2)c2nc(N3CCOC[C@H]3C)cc(-c3ccc(C(=O)NC4CC4)cc3)c12` [Example 63, N-cyclopropyl-4-{5-methyl-2-[(3R)-3-methylmorpholin-4-yl]-8-(1H-pyrazol-5-yl)-1,7-naphthyridin-4-yl}benzamide]: the IC50 turned out to be 7.87 nM.
`COCc1ccc(-c2cc(N3CCOC[C@H]3C)nc3c(-c4ccn[nH]4)ncc(C)c23)cc1` [Example 65, 4-[4-(methoxymethyl)phenyl]-5-methyl-2-[(3R)-3-methylmorpholin-4-yl]-8-(1H-pyrazol-5-yl)-1,7-naphthyridine] came in with an IC50 of 12.3 nM.
For the compound `CNC(=O)c1ccc(-c2cc(N3CCOC[C@H]3C)nc3c(-c4ccn[nH]4)ncc(C)c23)cc1` [Example 66, N-methyl-4-{5-methyl-2-[(3R)-3-methylmorpholin-4-yl]-8-(1H-pyrazol-5-yl)-1,7-naphthyridin-4-yl}benzamide], the IC50 is 12.9 nM.

Another assay relates to HeLa cells. The experiment in a line: Proliferation assay (HeLa, crystal violet). Format: cell-based. To be noted: Homo sapiens, 96 h, 4 days incubation, crystal violet staining, read-out: Inhibition of HeLa cell proliferation. Here is the method:
Human tumour cells were originally obtained from the American Type Culture Collection (ATCC), the Deutsche Sammlung von Mikroorganismen und Zellkulturen (DSMZ, German Collection of Microorganisms and Cell Cultures) or Epo GmbH, Berlin.
Adherently growing cells (HeLa, HeLa-MaTu-ADR, HT-144, Lovo, HT-29, NCI-H460, DU145, Caco2, B16F10) were plated out in a density of 1500-4000 cells/measurement point, depending on the rate of growth of the cell line, in a 96-well multititre plate in 200 μl of growth medium (DMEM/HAMS F12, 2 mM L-glutamine, 10% foetal calf serum). After 24 hours, the cells of one plate (zero plate) were dyed with crystal violet (see below), whereas the medium of the other plates was replaced with fresh culture medium (200 μl) to which the test substances were added in various concentrations (0 μM, and also in the range of 0.001-10 μM; the final concentration of the solvent dimethyl sulphoxide was 0.1 or 0.5%). The cells were incubated for 4 days in the presence of the test substances. Cell proliferation was determined by staining the cells with crystal violet: the cells were fixed at room temperature for 15 min by adding 20 μl/measurement point of an 11% strength glutaraldehyde solution. After washing the fixed cells three times with water, the plates were dried at room temperature. The cells were stained by adding 100 μl/measurement point of a 0.1% strength crystal violet solution (pH adjusted to pH 3 by adding acetic acid). After washing the cells three times with water, the plates were dried at room temperature. The dye was dissolved by adding 100 μl/measurement point of a 10% strength acetic acid solution. Absorbance was determined photometrically at a wavelength of 595 nm. The percentage change in cell growth was calculated by normalizing the measured values to the absorbance values of the zero plate (=0%) and the absorbance of the untreated (0 μM) cells (=100%). The IC50 values were determined by means of a four parameter fit.
Inhibition of proliferation of HeLa cells by compounds according to the present invention, determined as described above. All IC50 (inhibitory concentration at 50% of maximal effect) values are indicated in M, “n.t.” means that the compounds have not been tested in the respective assay.
Regarding `Cc1cnc(-c2ccn[nH]2)c2nc(N3CCOC[C@H]3C)cc(OC(C)C)c12` [Example 1, 5-methyl-2-[(3R)-3-methylmorpholin-4-yl]-4-(propan-2-yloxy)-8-(1H-pyrazol-5-yl)-1,7-naphthyridine], the IC50 came out at 498 nM.
For the compound `Cc1cnc(-c2ccn[nH]2)c2nc(N3CCOC[C@H]3C)cc(-c3ccnn3C)c12` [Example 2, 5-methyl-2-[(3R)-3-methylmorpholin-4-yl]-4-(1-methyl-1H-pyrazol-5-yl)-8-(1H-pyrazol-5-yl)-1,7-naphthyridine], the IC50 was 63.4 nM.

The record behind these values is US10729680B2, “5-substituted 2-(morpholin-4-yl)-1,7-naphthyridines” (BAYER PHARMA AKTIENGESELLSCHAFT, priority 2016, dated 2020).
